± gives the expanded uncertainty stated by the source.
Conditions: 101.33 kPa, Liquid, Vibrating tube method

SMILES	mass density (298.15 K)	other results
CCCCCCC [heptane]	679.54 ± 1 kg/m3	
CCCC[N+]1(C)CCCC1.O=S(=O)([O-])C(F)(F)F [1-butyl-1-methylpyrrolidinium trifluoromethanesulfonate]	1252.75 ± 1.1 kg/m3	
c1ccsc1 [thiophene]	1058.92 ± 1 kg/m3	
c1ccc2sccc2c1 [benzo[b]thiophene]		mass density (308.15 K): 1150.81 ± 1 kg/m3; mass density (318.15 K): 1141.83 ± 1 kg/m3; mass density (328.15 K): 1132.85 ± 1 kg/m3
CCCCCCn1cc[n+](C)c1.N#C[B-](C#N)(C#N)C#N [1-hexyl-3-methylimidazolium tetracyanoborate]		mass density (308.15 K): 983.03 ± 1 kg/m3
CCCC[N+]1(C)CCCC1.N#CC(=C=[N-])C#N [1-butyl-1-methylpyrrolidinium tricyanomethanide]	1006.91 ± 1.3 kg/m3	
CC(C)=O [acetone]	785.32 ± 1 kg/m3	
CCCO [propan-1-ol]	799.52 ± 1 kg/m3	

From the NIST ThermoML archive (doi:10.1016/j.jct.2014.04.025)
